Measurements: PubChem BioAssay (NCI)
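Five concentrations, 48 hours, 96-well plates. Here, GI50 denotes the concentration required for 50% inhibition of growth. TGI marks complete inhibition of growth.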

Tests used:
Assay in all cases: NCI anticancer screen, dose series, 48 h
EKVX NSCLC = tested on: EKVX NSCLC
SR leukemia = tested on: SR leukemia
K-562 leukemia = tested on: K-562 leukemia
M14 melanoma = tested on: M14 melanoma
SF-539 CNS = tested on: SF-539 CNS
TK-10 renal = tested on: TK-10 renal
COLO 205 colon = tested on: COLO 205 colon
CCRF-CEM leukemia = tested on: CCRF-CEM leukemia
UACC-257 melanoma = tested on: UACC-257 melanoma
DU-145 prostate = tested on: DU-145 prostate

Structure (SMILES)	TGI (EKVX NSCLC) [µM]	TGI (SR leukemia) [µM]	TGI (K-562 leukemia) [µM]	TGI (M14 melanoma) [µM]	TGI (SF-539 CNS) [µM]	TGI (TK-10 renal) [µM]	TGI (COLO 205 colon) [µM]	TGI (CCRF-CEM leukemia) [µM]	TGI (UACC-257 melanoma) [µM]	GI50 (EKVX NSCLC) [µM]	GI50 (SR leukemia) [µM]	GI50 (K-562 leukemia) [µM]	GI50 (M14 melanoma) [µM]	GI50 (SF-539 CNS) [µM]	GI50 (DU-145 prostate) [µM]	TGI (DU-145 prostate) [µM]	GI50 (TK-10 renal) [µM]	GI50 (UACC-257 melanoma) [µM]	GI50 (COLO 205 colon) [µM]	GI50 (CCRF-CEM leukemia) [µM]
Cn1c(=O)c2[nH]cnc2n(CC(N)=O)c1=O	> 100	> 100	> 100	> 100	> 100	> 100	> 100	> 100												
COC1C2c3cc4c(cc3CC(C#N)(c3ccccc32)N1C(=O)c1ccccc1)OCO4 (centres undefined)	> 100	> 100	> 100	> 100	> 100	> 100	> 100	> 100	> 100											
COC1OC(C)C2OC(C)(C)OC2C1OC(C)=O (centres undefined)		> 100	> 100	> 100	> 100	> 100	> 100	> 100	> 100											
O=C(/C=C/C12c3ccccc3C(c3ccccc31)C1C(=O)NC(=O)C12)c1ccc(Cl)cc1 (centres undefined)	2.87	> 100	> 100	3.29	2.86	3.52	3.77	> 100	3.45	1.43	2.15	1.99	1.65	1.51	1.67	3.26	1.92	1.56	1.91	1.66
CCOC(=O)C(CNc1ccc(O)cc1)NC(=O)c1ccccc1 (centres undefined)	> 100	> 100	> 100	> 100	> 100	> 100	> 100	> 100	> 100											
C[C@]12CCNC(=O)C=C1CC[C@@H]1C2CC[C@@]2(C)C1CC[C@@H]2OC(=O)COc1ccc(N(CCCl)CCCl)cc1 (some centres undefined)	40.3	15.7	46.3	20.3	9.01	35.6	23.9	9.45	37.2							22				
CCOC(=O)c1ccc2c(c1)[n+](=O)c(C(C)=O)c(C(F)(F)F)n2[O-]	3.96	0.625	2.52	3.67	3.31	3.25	3	4.59	3.5	1.82	0.197	1.16	1.7	1.71	1.57	2.96	1.39	1.76	1.54	1.68
CCOC(=O)c1cnn2c3ccccc3n(S(=O)(=O)c3ccc(OC)cc3)c12	> 100	> 100	> 100	> 100	0.868	> 100	1.08	> 100	> 100	0.583	0.238	0.0553	0.211	0.252	0.395	> 24.2	25.2	17.1	0.289	0.257
O=C1c2ccccc2C(=O)c2c(NCC3CO3)ccc(NCC3CO3)c21 (centres undefined)	> 51.5	> 27.2	> 100	2.57	6.82	45	29.9		23.9							30.2				
COc1cccc(C2C3=C(COC3=O)N(CCO)c3cc4c(cc32)OCO4)c1 (centres undefined)	> 50	0.227	> 18.7	> 11			0.854	> 50	> 50	1.03	0.0795	0.155	0.25	0.36	0.388		0.725	0.124	0.191	0.274
C/C=C/COC(=O)CO[N+](=O)[O-]	> 100	> 100	> 100	> 100	> 100	> 100	> 100	> 100	> 100											
CCN1C[C@]2(COC)[C@H](O)C[C@H](OC)[C@]34C1[C@H]([C@H](OC)[C@H]23)[C@]1(OC(C)=O)[C@H]2[C@@H](OC(=O)c3ccccc3)[C@](O)(C[C@H]24)[C@@H](OC)[C@@H]1O	> 100	> 100	> 100	> 100	> 100	> 100	> 100	> 100	> 100							> 100				
Cc1ccc(-c2nc([P+](c3ccccc3)(c3ccccc3)c3ccccc3)c(Nc3ccccc3)o2)cc1	2.18	2.32	1.27	2.08	2.91	2.78	2.78	2.28	2.7	0.815	0.39	0.326	0.655	1.54	1.2	2.48	1.27	0.831	0.995	0.445
NNC(=O)c1ccc(OCc2nc3ccccc3[nH]2)cc1	> 100	> 100	> 100	> 100	> 100	> 100	> 100		> 100							> 100				
COc1cc2c(=O)n(CCN(C)C)c3c4cc5c(cc4ccc3c2cc1OC)OCO5	4.7	3.78	> 11.3	0.723	0.863		0.922	> 10.9	1.52	0.694	0.0557	0.186	0.166	0.181	0.199	6.27		0.413	0.169	0.146
Cc1ccc(C)c(NC(=O)CC2SC(=Nc3ccccc3Cl)NC2=O)c1 (centres undefined)	> 100	55.4		> 100	> 100	> 100	> 100	> 100	> 100											

Structure (SMILES)	TGI (EKVX NSCLC) [µM]	TGI (SR leukemia) [µM]	TGI (K-562 leukemia) [µM]	TGI (M14 melanoma) [µM]	TGI (SF-539 CNS) [µM]	TGI (TK-10 renal) [µM]	TGI (COLO 205 colon) [µM]	TGI (CCRF-CEM leukemia) [µM]	TGI (UACC-257 melanoma) [µM]	GI50 (EKVX NSCLC) [µM]	GI50 (SR leukemia) [µM]	GI50 (K-562 leukemia) [µM]	GI50 (M14 melanoma) [µM]	GI50 (SF-539 CNS) [µM]	GI50 (DU-145 prostate) [µM]	TGI (DU-145 prostate) [µM]	GI50 (TK-10 renal) [µM]	GI50 (UACC-257 melanoma) [µM]	GI50 (COLO 205 colon) [µM]	GI50 (CCRF-CEM leukemia) [µM]
CN1CCN(Cc2ccc3c(NNC(=O)c4ccccc4)nc4cc(F)ccc4n23)CC1	16	15.7	21	12.9	8.22	> 92.5	13.6	> 100	12.5	0.17	0.282	0.376	0.252	0.491	0.663	> 100	0.252	0.848	0.325	0.225
Clc1ccccc1C(Nc1ncccn1)Nc1ncccn1	> 100	> 100	> 100	> 100	> 100	> 100	> 100		> 100							> 100				
O=c1cc(-c2ccccc2)oc2cc(OC/C(=N/O)c3ccc(F)cc3)ccc12	> 50	> 50	> 50	> 50	26	31.8	> 50	> 50	> 50	17.2	23	27.5	46.7	11.5	18.1	> 50	13.7	35.3	26.1	23.7
CCN(CC)CCn1[nH]c2c3ccc(=O)cc3sc3c(NCCN)ccc1c32	7.13	1.71	1.42		1.72	11.3		0.719	4.01											
NC(=S)N=Nc1c(O)c2ccccc2c2ccccc12		35.8	28.3	3.35	9.16	> 94.1	73.6	> 71.6	3.31		9.64	5.98	1.78	2.48	1.9	3.36	44.6	1.72	22.8	28.6
COc1ccc(Cn2cc3c(c2-c2ccccc2)CCc2cnoc2-3)cc1N	> 100	4.25	> 100	> 100	0.579	> 100	4.08		> 100	0.359	0.0528	0.0452	0.227	0.158	0.21	1.27	0.626	10.2	1.32	0.245
O=C(Nc1ccccc1O)c1ccc(NS(=O)(=O)c2cccc3cccnc23)cc1		13.9	> 25	5.61	10.1	3.45	4.01	> 25	5.25		1.31	0.971	1.18	0.76	1.27	9.55	0.704	0.571	1.06	1.05
O=C(C[P+](c1ccccc1)(c1ccccc1)c1ccccc1)C[P+](c1ccccc1)(c1ccccc1)c1ccccc1		3.89	7.49	1.46	1.13	1.09	1.51	1.05	1.28		0.31	0.306	0.387	0.286	0.327	1.3	0.326	0.416	0.398	0.229
c1ccc([As]=[As]c2ccccc2)cc1 (centres undefined)		1.95	2.1	4.17	2.36	3.38	2.8	1.62	2.88		0.302	0.311	1.55	0.884	1.66	3.32	1.61	1.28	1.13	0.234
O=C(CCc1nnc2s/c(=C\c3ccccc3Cl)c(=O)n12)Nc1cc(Cl)ccc1Cl	> 100	> 100	> 100	> 100	> 100	> 100		> 100	> 100											
CN(C)CCNC(=O)c1cccc2ccc(-c3ccc(-c4ccccc4)cc3)nc12	24.6	4.64	5.64	3.48	3.31	9.43	3	11.5	3.58											
COc1cc(C2C3=C(COC3=O)N(CCO)c3cc4c(cc32)OCO4)cc(OC)c1O (centres undefined)	> 50	> 11.9	> 50	7.64	> 13.6	> 50	4.07	> 50		4.36	0.611	1.49	1.49	1.47	1.58	7.22	4.54		1.48	1.51
COc1cc2c(cc1C1=NC(C)(C)CO1)OCO2	> 100	> 100	> 100	> 100	> 100	> 100	> 100	> 100	> 100											
COc1ccc(Nc2nc3cc(N)cc(N)c3nc2-c2ccccc2)cc1OC	71.1	21.8	71.2	69.8	37.5	58.5	41.2		> 100	25.6	2.67	20.2	21	16.2	45	> 100	20.9	35.6	19.8	
O=C(NCc1ccco1)c1cccc(NC2=C(Cl)C(=O)N(Cc3ccccc3)C2=O)c1	> 100	19.9	> 100	24.6	15	9.18	49.9		26.5	34.8	2.94	5.24	11.7	3.53	5.3	24.7	3.54	3.86	16.2	
COc1ccc(C2C=C(c3ccc(Cl)cc3)N=C3SC=C(C)N32)c(Br)c1 (centres undefined)		14.9	> 100	15.7	5.37	14.4	10.3	11.8	18.8		2.06	4.02	3.99	2.15	2.68	7.26	4.05	4.42	3.54	2.37
